Reference: article PMC7140460, “Fluorinated Galactoses Inhibit Galactose-1-Phosphate Uridyltransferase and Metabolically Induce Galactosemia-like Phenotypes in HEK-293 Cells” (Cells, 2020)

Biological target: T1, recombinant hGALT (human galactose-1-phosphate uridyltransferase) (Homo sapiens, UniProt P07902)
T1 construct: gene GALT; synthetic gene in pET-15b (NdeI-BamHI, insert 1149 bp), His-tagged, E. coli BL21(DE3)-RIPL, Ni-NTA purified; tag removal not mentioned
Assay: coupled PGM/G6PDH assay, NADPH absorbance at […] nm
Format: biochemical

T1 sequence (P07902 whole entry): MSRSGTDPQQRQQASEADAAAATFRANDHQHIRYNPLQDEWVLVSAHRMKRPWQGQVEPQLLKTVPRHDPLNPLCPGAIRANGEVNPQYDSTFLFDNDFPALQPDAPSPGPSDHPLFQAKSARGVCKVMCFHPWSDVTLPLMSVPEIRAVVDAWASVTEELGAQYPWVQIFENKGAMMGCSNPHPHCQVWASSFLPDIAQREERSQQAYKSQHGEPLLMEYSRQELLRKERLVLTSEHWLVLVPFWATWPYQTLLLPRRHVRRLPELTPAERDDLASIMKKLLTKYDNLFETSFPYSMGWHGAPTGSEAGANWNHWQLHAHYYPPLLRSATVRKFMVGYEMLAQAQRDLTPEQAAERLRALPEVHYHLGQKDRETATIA

Ki: 900 µM
SMILES: O=P(O)(O)O[C@H]1O[C@H](CO)[C@H](O)[C@H](O)[C@H]1F [F-Gal-1-P, 2-fluoro-2-deoxy-galactose-1-phosphate]
